Test results from patent publication US11459315B2, “Modulators of methyl modifying enzymes, compositions and uses thereof” (Constellation Pharmaceuticals, Inc., priority 2017, dated 2022).
pEC50: −log10 of the molar value. Where two headings read alike, the source gives them in different places.

Tests used:
[1] = test system: H3K27me3 mark in HeLa cells (EZH2); assay: H3K27me3 Alpha Hela Assay (AlphaLISA); type: cell-based; settings: HeLa cell assay, Table 3 classes, read-out: EC50 Cellular Activity
In short: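 HeLa cells (1,000/well) treated with ten 3-fold compound doses for 72 h at 37 °C; lysates extracted and H3K27me3 detected by AlphaLISA with anti-K27me3 acceptor beads, biotinylated anti-H3 (3 nM) and streptavidin donor beads. EC50 from DMSO-normalized dose-response curves; duplicate plate assessed viability.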

[2] = target: PRC2 containing wt EZH2 (Homo sapiens (Human), UniProt Q15910); assay: EZH2 residence time assay (100-fold dilution of pre-formed enzyme-inhibitor complex); type: biochemical
Procedure: EZH2 residence time assay: Compound residence times were assessed by monitoring the recovery of enzyme activity following a 100-fold dilution of pre-formed enzyme-inhibitor complex (dilution reaction), and comparing it to the activity of an undiluted control with the same final concentrations of all reagents (control reaction). Enzyme activity was measured by incorporation of ^3H-SAM into a biotinylated H3 peptide. […] For the control reaction, 0.202 nM PRC2 was pre-incubated with 1 μM activating peptide, 1.01 μM SAM, 1.01 μM ^3H-SAM, and compound at 6.06 times its Ki for 2 h in 138.6 μL of buffer, then the reaction was initiated by the addition of 1.4 μL 500 μM substrate peptide in water. Reactions were quenched at various time points spanning up to 10 hours, by transferring 8 μL aliquots from the reaction vessel to a plate containing 8 μL per well of STOP solution (50 mM Tris pH 8.5, 200 mM EDTA, 2 mM SAH). After the last time point, 12 μL of the quenched solutions were transferred to a streptavidin coated FlashPlate (PerkinElmer) containing 40 μL per well of STOP solution, incubated 1-8 h, washed, and read in a TopCount plate reader (PerkinElmer). A custom script was used to fit control reaction progress data to a straight line and dilution reaction progress data:
Where y is the product formed, t is the reaction time, vi is the initial velocity, vs is the steady state velocity, and kobs is the rate constant for the transition from the initial velocity phase of the curve to the steady state velocity phase of the curve. In fitting the dilution reaction progress data, vs was constrained to the slope of the line fitted to the control reaction progress data. The fitted value of kobs was then transformed into residence time:
Where τ is residence time, Ki is the inhibition constant, [EI] is the calculated equilibrium concentration of enzyme-inhibitor complex, [E] is the calculated equilibrium concentration of free enzyme, and [I] is the calculated equilibrium concentration of free inhibitor.

Sequence of PRC2 containing wt EZH2 (Q15910 whole entry): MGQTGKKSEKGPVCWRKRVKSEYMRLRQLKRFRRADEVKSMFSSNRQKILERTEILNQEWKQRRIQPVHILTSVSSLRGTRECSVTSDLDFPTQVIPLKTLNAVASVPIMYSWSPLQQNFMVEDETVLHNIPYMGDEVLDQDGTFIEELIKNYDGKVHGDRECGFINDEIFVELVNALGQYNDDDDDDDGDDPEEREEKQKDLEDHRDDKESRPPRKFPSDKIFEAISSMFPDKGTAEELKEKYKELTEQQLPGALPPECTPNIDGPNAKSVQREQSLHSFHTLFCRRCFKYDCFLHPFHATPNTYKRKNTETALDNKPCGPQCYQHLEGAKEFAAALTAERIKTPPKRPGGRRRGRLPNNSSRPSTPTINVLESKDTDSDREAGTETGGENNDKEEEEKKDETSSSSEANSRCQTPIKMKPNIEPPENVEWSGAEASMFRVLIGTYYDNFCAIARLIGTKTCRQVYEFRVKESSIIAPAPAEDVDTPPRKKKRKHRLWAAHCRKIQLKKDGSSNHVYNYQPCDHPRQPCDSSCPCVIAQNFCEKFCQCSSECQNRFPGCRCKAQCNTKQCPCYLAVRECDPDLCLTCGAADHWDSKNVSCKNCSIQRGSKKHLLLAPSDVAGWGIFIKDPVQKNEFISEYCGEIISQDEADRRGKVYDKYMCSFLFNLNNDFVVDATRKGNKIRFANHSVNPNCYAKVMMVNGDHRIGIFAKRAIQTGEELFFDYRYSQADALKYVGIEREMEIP
Sequence of PRC2 containing wt EZH2 (O75530 whole entry partner): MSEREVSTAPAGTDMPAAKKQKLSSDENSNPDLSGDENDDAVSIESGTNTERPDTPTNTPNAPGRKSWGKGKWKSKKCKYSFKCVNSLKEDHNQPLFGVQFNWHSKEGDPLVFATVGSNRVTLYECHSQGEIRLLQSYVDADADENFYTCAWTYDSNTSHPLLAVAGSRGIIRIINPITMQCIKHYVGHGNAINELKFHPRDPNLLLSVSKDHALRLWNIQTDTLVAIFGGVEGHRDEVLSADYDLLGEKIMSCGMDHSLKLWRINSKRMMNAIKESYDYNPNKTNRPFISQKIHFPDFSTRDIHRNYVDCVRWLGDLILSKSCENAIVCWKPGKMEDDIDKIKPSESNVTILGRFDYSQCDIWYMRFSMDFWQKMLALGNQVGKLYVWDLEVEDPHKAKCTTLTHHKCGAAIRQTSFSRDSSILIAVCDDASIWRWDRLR
Sequence of PRC2 containing wt EZH2 (Q15022 whole entry partner): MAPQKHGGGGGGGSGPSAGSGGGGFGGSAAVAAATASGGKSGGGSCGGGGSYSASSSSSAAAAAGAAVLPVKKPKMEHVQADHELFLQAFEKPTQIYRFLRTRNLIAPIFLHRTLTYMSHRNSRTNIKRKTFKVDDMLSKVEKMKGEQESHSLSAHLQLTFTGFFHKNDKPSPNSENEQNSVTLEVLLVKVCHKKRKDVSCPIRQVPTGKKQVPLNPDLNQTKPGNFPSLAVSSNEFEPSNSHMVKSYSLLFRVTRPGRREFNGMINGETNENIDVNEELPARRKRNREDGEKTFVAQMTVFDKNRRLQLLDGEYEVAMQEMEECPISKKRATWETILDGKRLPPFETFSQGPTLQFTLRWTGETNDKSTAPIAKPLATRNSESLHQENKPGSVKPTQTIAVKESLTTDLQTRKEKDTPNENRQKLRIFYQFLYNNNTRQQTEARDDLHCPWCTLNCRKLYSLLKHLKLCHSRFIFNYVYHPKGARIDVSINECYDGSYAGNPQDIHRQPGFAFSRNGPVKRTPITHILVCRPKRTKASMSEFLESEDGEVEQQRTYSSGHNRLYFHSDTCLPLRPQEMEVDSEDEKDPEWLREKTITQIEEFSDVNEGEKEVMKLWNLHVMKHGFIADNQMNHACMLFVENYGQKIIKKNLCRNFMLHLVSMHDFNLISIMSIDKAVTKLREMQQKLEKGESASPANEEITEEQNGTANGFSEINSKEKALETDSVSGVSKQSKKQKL
Sequence of PRC2 containing wt EZH2 (Q09028 whole entry partner): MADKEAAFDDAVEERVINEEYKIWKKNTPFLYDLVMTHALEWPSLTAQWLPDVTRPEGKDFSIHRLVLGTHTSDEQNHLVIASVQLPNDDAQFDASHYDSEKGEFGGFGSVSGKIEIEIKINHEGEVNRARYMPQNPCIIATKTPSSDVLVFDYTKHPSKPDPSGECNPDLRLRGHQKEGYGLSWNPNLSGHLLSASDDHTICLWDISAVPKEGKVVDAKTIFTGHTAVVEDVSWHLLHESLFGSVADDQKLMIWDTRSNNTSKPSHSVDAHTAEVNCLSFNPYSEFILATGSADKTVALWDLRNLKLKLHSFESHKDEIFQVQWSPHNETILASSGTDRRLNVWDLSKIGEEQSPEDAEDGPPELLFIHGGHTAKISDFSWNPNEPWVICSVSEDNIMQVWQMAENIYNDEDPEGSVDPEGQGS
Sequence of PRC2 containing wt EZH2 (Q6ZN18 whole entry partner): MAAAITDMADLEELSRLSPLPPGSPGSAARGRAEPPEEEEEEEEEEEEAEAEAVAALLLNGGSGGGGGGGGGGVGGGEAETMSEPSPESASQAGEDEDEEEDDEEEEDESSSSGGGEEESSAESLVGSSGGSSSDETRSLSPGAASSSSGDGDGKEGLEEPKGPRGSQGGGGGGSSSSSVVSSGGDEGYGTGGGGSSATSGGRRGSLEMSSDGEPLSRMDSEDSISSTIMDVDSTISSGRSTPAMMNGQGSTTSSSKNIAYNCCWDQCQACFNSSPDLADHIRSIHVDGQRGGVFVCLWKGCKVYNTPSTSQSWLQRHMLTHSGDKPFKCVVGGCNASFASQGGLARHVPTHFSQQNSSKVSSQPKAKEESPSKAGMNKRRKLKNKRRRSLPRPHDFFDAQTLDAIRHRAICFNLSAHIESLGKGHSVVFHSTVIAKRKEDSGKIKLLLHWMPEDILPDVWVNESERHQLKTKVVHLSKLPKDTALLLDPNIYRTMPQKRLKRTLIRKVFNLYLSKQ

For COC1CCC([C@@H](C)n2c(C)c(C(=O)NCc3c(SC)cc(C)[nH]c3=O)c3ccccc32)CC1 (single isomer, unassigned) [drawing 248], the pEC50 [1] was over 8.30 and the residence time [2] was over 2100 min.
For CSc1cc(C)[nH]c(=O)c1CNC(=O)c1c(C)n([C@H](C)C2CCC(O)CC2)c2ccccc12 (single isomer, unassigned) [drawing 250], the pEC50 ([1]; Homo sapiens, HeLa) was over 8.30 and the “residence time” value [2] was “B (a t value of greater than 5 hours but less or equal than 35 hours)”.
For CSc1cc(C)[nH]c(=O)c1CNC(=O)c1c(C)n([C@H](C)C2CCC(O)CC2)c2ccccc12 (single isomer, unassigned) [drawing 251], the pEC50 [1] was over 8.30 and the “residence time” value [2] was “A (value of greater than 35 hours)”.
With CSc1cc(C)[nH]c(=O)c1CNC(=O)c1c(C)n([C@H](C)C2CCC(N3CC(OC(F)F)C3)CC2)c2ccccc12 (single isomer, unassigned) [drawing 252] the pEC50 ([1]; Homo sapiens, HeLa) was over 8.30 and the residence time [2] was over 2100 min.
With CSc1cc(C)[nH]c(=O)c1CNC(=O)c1c(C)n([C@H](C)C2CCC(N3CC(F)C3)CC2)c2ccccc12 (single isomer, unassigned) [drawing 254] the pEC50 ([1]; Homo sapiens, HeLa) was over 8.30 and the “residence time” value [2] was “A (value of greater than 35 hours)”.
CSc1cc(C)[nH]c(=O)c1CNC(=O)c1c(C)n([C@H](C)C2CCC(N3CC(F)C3)CC2)c2ccccc12 (single isomer, unassigned) [drawing 255] was tested, and the pEC50 [1] was 7.60 to 8.30 and the “residence time” value [2] was “C (a t value of greater than 0.5 hours but less or equal than 5 hours)”.
Work on COC1CN(C2CCC([C@@H](C)n3c(C)c(C(=O)NCc4c(SC)cc(C)[nH]c4=O)c4cccnc43)CC2)C1 (single isomer, unassigned) [drawing 259] yielded a pEC50 [1] of 7.60 to 8.30 and a residence time [2] of 300 to 2100 min.
CCOC1CN(C2CCC([C@@H](C)n3c(C)c(C(=O)NCc4c(SC)cc(C)[nH]c4=O)c4cccnc43)CC2)C1 (single isomer, unassigned) [drawing 261] was tested, and the pEC50 [1] was over 8.30 and the residence time ([2]; read-out: Residence Time) was 300 to 2100 min.
In the case of CSc1cc(C)[nH]c(=O)c1CNC(=O)c1c(C)n([C@H](C)C2CCC(NC3(C)CCOC3)CC2)c2ccccc12 (single isomer, unassigned) [drawing 269], the pEC50 [1] was 7.60 to 8.30 and the residence time [2] was over 2100 min.
CSc1cc(C)[nH]c(=O)c1CNC(=O)c1c(C)n([C@H](C)C23CC(NC4COC4)(C2)C3)c2ccccc12 [drawing 234] showed a pEC50 ([1]; Homo sapiens, HeLa) of over 8.30 and a residence time [2] of 300 to 2100 min.
CSc1cc(C)[nH]c(=O)c1CNC(=O)c1c(C)n([C@H](C)C23CC(N(C)CC(F)(F)F)(C2)C3)c2ccccc12 [drawing 237] was tested, and the pEC50 ([1]; Homo sapiens, HeLa) was 7.60 to 8.30 and the residence time [2] was 300 to 2100 min.
With CSc1cc(C)[nH]c(=O)c1CNC(=O)c1c(C)n([C@H](C)C2CCN(CC(C)(C)O)CC2)c2ccccc12 [drawing 240] the pEC50 ([1]; Homo sapiens, HeLa) was 6.90 to 7.60 and the residence time [2] was 300 to 2100 min.
Work on CSc1cc(C)[nH]c(=O)c1CNC(=O)c1c(C)n([C@H](C)C2CCN(CC(F)(F)F)CC2)c2ccccc12 [drawing 243] yielded a pEC50 ([1]; Homo sapiens, HeLa) of over 8.30 and a residence time [2] of 300 to 2100 min.
Work on CSc1cc(C)[nH]c(=O)c1CNC(=O)c1c(C)n([C@H](C)C2CCOCC2)c2ccccc12 [drawing 247] yielded a pEC50 ([1]; Homo sapiens, HeLa) of over 8.30 and a residence time [2] of 30 to 300 min.
Work on CSc1cc(C)[nH]c(=O)c1CNC(=O)c1c(C)n([C@H](C)C2CCN(C3CC3)CC2)c2ncccc12 [drawing 256] yielded a pEC50 ([1]; Homo sapiens, HeLa) of over 8.30 and a residence time [2] of 300 to 2100 min.
Molecule COC1CN(C2CCC([C@@H](C)n3c(C)c(C(=O)NCc4c(SC5CC5)cc(C)[nH]c4=O)c4ccccc43)CC2)C1 (some centres unmarked) [drawing 264] has a pEC50 ([1]; Homo sapiens, HeLa) of 7.60 to 8.30 and a residence time [2] of 300 to 2100 min.
For CCSc1cc(C)[nH]c(=O)c1CNC(=O)c1c(C)n([C@H](C)C2CCN(CC(F)(F)F)CC2)c2ccccc12 [drawing 265], the pEC50 ([1]; Homo sapiens, HeLa) was 6.90 to 7.60 and the residence time [2] was under 30 min.
For Cc1cc(SC(F)F)c(CNC(=O)c2c(C)n([C@H](C)C3CCN(CC(F)(F)F)CC3)c3ccccc23)c(=O)[nH]1 [drawing 266], the pEC50 ([1]; Homo sapiens, HeLa) was 6.90 to 7.60 and the residence time [2] was under 30 min.
Cc1cc(SC2CCC2)c(CNC(=O)c2c(C)n([C@H](C)C3CCN(CC(F)(F)F)CC3)c3ccccc23)c(=O)[nH]1 [drawing 267] showed a pEC50 ([1]; Homo sapiens, HeLa) of 6.90 to 7.60 and a residence time [2] of 30 to 300 min.
